# Laboratory results as given in publication PMC10162847 (Phytomedicine, 2023).
# System: SARS-CoV-2 RBD^WT and mutant proteins on HEK293-hACE2-EGFP cells
# Assay type: cell-based, human
compound,measurement,value
"O=c1c(O)c(-c2cc(O)c(O)c(O)c2)oc2cc(O)cc(O)c12 [myricetin, 3,5,7-trihydroxy-2-(3,4,5-tri hydroxyphenyl)-4-benzopyrone]",binding of SARS-CoV-2 S protein to HEK293-hACE2-EGFP cell membranes,blocked
